What was measured:
[1] = tested on: OsHSFA2E; assay: OsHSFA2E gene expression by real-time PCR, Example 6; format: in vivo, rice; conditions: Oryza sativa; 0.5 mM in medium, 30° C. for 2 hours, aboveground part; read-out: OsHSFA2E expression level, increase vs control
Excerpt: In order to design primers for the target genes necessary for gene expression analysis by real-time PCR, homologs of Arabidopsis thaliana high-temperature-responsive genes in rice were searched for. The amino acid sequence of Arabidopsis thaliana HSFA2 (AGI code: AT2G26150) was obtained from TAIR (https://www.arabidopsis.org/), and the nucleotide sequence of the homolog was obtained using RAP-DB (https://rapdb.dna.affrc.go.jp/). As a reference gene, the nucleotide sequence of the homolog of Arabidopsis thaliana ACTIN2 (AGI code: AT3G18780) was also obtained. Homolog genes in rice were designated as OsHSFA2E and OsACT1, respectively.
The materials as used in Example 3 were used.
The method as employed in Example 3 was employed.
The rice samples subjected to germination for 3 days were inoculated into a liquid medium consisting of a ½ Murashige and Skoog Plant Salt Mixture. Specifically, a liquid medium was dispensed at 3 ml/well to a 12-well microplate (IWAKI), and 3 samples were transferred to each well. N-acetylglutamic acid was applied to each well to the final concentration of 0.5 mM in the medium, incubation was performed at 30° C. for 2 hours, and RNA was extracted from the aboveground part using the RNeasy Plant Mini Kit. […]
(§1) Thereafter, the relative expression level of the target gene upon N-acetylglutamic acid treatment was calculated by the ΔΔCt method.

[2] = tested on: H1HSFA2; assay: H1HSFA2 gene expression by real-time PCR, Example 7; format: in vivo, hop; conditions: 1 mM in medium, 20° C. for 2 hours, leaves; read-out: H1HSFA2 expression level, increase vs control
Excerpt: In order to design primers for the target genes necessary for gene expression analysis by real-time PCR, homologs of Arabidopsis thaliana high-temperature-responsive genes in hop were searched for. The amino acid sequences of Arabidopsis thaliana HSFA2 (AGI code: AT2G26150) and HSP17.6C (AGI code: AT1G53540) were obtained from TAIR (https://www.arabidopsis.org/), and the nucleotide sequences of the gene homologs were obtained using Hopbase (https://hopbase.cgrb.oregonstate.edu/). […] As the reference gene, the nucleotide sequence of the homolog of Arabidopsis thaliana EF1α (AGI code: AT1G18070) was obtained. The hop homolog genes were designated as H1HSFA2, H1HSP17.6C, and HIEF1α, respectively.
The materials as used in Example 4 were used.
The methods as employed in Example 4 were employed.
The leaves in the first and the second nodes from the apical buds of the tissue-cultured seedlings were sampled 1.5 months after the initiation of subculture and inoculated into a liquid medium consisting of a ½ Murashige and Skoog Plant Salt Mixture and 2 (w/v) % glucose. Specifically, a liquid medium was dispensed at 5 ml/well to a 6-well microplate (IWAKI), and 5 hop leaves were mounted thereon. […]
as §1

[3] = tested on: HAC12; assay: HAC12 gene expression by real-time PCR, Example 15; format: in vivo; conditions: Arabidopsis thaliana; 0.1 mM in medium, 2 hours after application, 22° C.; read-out: HAC12 expression level, increase vs group not subjected to the treatment
Experimental: The materials as used in Example 14 were used.
A liquid medium containing a ½ Murashige and Skoog Plant Salt Mixture (Nacalai) and 1 (w/v) % sucrose (FUJIFILM Wako) was used as a growth medium.
Arabidopsis thaliana seeds were sterilized with the use of a Kitchen Haiter® liquid (Kao Corporation) diluted to one-half concentration with distilled water for 3 minutes, washed 3 times with sterile distilled water, and then incubated at 4° C. overnight. The growth medium was dispensed at 1 ml/well on a 12-well microplate (IWAKI), 5 grains of the seeds were inoculated in each well, and the plate was transferred to the incubator (TOMY) to initiate growing. The incubator was maintained at a temperature of 22° C. for a daily cycle of 16 hours light and 8 hours darkness.
N-acetylglutamic acid was applied to Arabidopsis thaliana 7 days after inoculation to the final concentration of 0.1 mM in the medium, followed by incubation for 2 hours or 6 hours. The incubator was maintained at a temperature of 22° C. for a daily cycle of 16 hours light and 8 hours darkness. After incubation, the samples were frozen with liquid nitrogen, and RNA was extracted using the RNeasy Plant Mini Kit […]. […]
Thereafter, the relative expression levels of the target genes upon N-acetylglutamic acid treatment were calculated by the ΔΔCt method using the Cp values obtained by real-time PCR.

## CC(=O)N[C@@H](CCC(=O)O)C(=O)O [N-acetylglutamic acid]
[1]
  fold induction at 500 µM: 1.4
[2]
  fold induction at 1000 µM: 1.7
[3]
  fold induction at 100 µM: 1.3
